ChEMBL document CHEMBL6096661, “Synthesis, biological evaluation and mechanism study of a novel indole-pyridine chalcone derivative as antiproliferative agent against tumor cells through dual targeting tubulin and HK2” (Eur J Med Chem, 2025)
The source made the active and inactive calls. The rule behind the calls is not given here.

Tests used:
Tubulin (Homo sapiens) [1] = target: T1, Tubulin (Homo sapiens) (UniProt P68371+Q9H4B7+P0DPH7+P68366+Q13509+Q71U36+P04350+Q3ZCM7+P07437+P68363+Q9BQE3+Q6PEY2+Q13885+Q9BVA1+Q9BUF5); test: Disruption of microtubule network in human MDA-MB-231 cells assessed as disorganized microtubule network at 1 uM incubated for 24 hrs by DAPI staining based fluorescence microscopic analysis; type: cell-based
Tubulin (Homo sapiens) [2] = target: T1, Tubulin (Homo sapiens); test: Disruption of microtubule network in human MDA-MB-231 cells assessed as atrophy fiber structure at 1 uM incubated for 24 hrs by DAPI staining based fluorescence microscopic analysis; type: cell-based
Tubulin (Homo sapiens) [3] = target: T1, Tubulin (Homo sapiens); test: Disruption of microtubule network in human MDA-MB-231 cells assessed as point-like fiber structure at 1 uM incubated for 24 hrs by DAPI staining based fluorescence microscopic analysis; type: cell-based
MDA-MB-231 = test: Antiproliferative activity against human MDA-MB-231 cells assessed as reduction in cell proliferation incubated for 48 hrs by CCK-8 assay; type: functional, cell-based; conditions: MDA-MB-231, 48 h
[4] = target: T2, Hexokinase-2 (Homo sapiens) (UniProt P52789); test: Inhibition of human HK2 transfected in Escherichia coli BL21 (DE) incubated for 10 mins
T2 sequence (whole entry): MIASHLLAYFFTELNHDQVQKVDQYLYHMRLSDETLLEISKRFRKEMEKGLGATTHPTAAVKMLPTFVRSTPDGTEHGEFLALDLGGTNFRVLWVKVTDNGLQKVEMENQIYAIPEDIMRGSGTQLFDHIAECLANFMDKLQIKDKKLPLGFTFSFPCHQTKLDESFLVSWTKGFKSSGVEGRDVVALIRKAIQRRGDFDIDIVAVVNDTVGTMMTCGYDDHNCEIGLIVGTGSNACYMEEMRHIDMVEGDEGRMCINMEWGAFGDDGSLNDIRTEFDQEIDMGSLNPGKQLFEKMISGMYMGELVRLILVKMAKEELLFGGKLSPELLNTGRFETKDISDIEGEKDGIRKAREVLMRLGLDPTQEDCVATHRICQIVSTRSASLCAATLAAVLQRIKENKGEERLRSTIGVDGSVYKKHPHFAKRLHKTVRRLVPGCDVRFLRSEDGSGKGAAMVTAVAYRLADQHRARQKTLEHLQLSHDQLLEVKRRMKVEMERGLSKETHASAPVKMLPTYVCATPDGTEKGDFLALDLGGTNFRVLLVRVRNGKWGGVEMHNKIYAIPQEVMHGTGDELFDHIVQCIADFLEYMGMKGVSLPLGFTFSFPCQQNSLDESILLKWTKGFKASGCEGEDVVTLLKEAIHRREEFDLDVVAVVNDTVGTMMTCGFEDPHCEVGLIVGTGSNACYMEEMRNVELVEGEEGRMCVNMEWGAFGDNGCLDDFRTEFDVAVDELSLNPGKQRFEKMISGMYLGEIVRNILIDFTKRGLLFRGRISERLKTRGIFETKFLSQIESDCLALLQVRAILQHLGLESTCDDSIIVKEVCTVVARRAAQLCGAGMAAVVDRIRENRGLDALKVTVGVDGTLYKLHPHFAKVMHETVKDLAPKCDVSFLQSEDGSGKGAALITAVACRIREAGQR

Tubulin (Homo sapiens) [5] = target: T1, Tubulin (Homo sapiens); test: Disruption of microtubule network in human MDA-MB-231 cells assessed as punctate fiber structure at 1 uM incubated for 24 hrs by DAPI staining based fluorescence microscopic analysis; type: cell-based
Tubulin (Homo sapiens) [6] = target: T1, Tubulin (Homo sapiens); test: Disruption of microtubule network in human MDA-MB-231 cells assessed as reduced microtubule network at 1 uM incubated for 24 hrs by DAPI staining based fluorescence microscopic analysis; type: cell-based
[7] = target: T2, Hexokinase-2 (Homo sapiens); test: Binding affinity to human HK2 transfected in Escherichia coli BL21 (DE) by pull down assay
[8] = target: Tubulin beta (Homo sapiens) (UniProt P68371+Q9H4B7+Q13509+P04350+Q3ZCM7+P07437+Q13885+Q9BVA1+Q9BUF5+A6NNZ2); test: Binding affinity to beta-tubulin (unknown origin) by pull down assay; type: protein assay

Compound | Activity (Tubulin (Homo sapiens) [1]) | Activity (Tubulin (Homo sapiens) [2]) | Activity (Tubulin (Homo sapiens) [3]) | IC50 (MDA-MB-231) | inhibition [4] | Activity (Tubulin (Homo sapiens) [5]) | Activity (Tubulin (Homo sapiens) [6]) | Activity [7] | Activity [8]
COc1ccc(CCc2cc(OC)c(OC)c(OC)c2)cc1O | Active | Active | Active | 1940 nM | inactive | Active | Active | – | –
O=C1N[C@H]2[C@H](CS[C@H]2CCCCC(=O)N2CCN(c3ccc4c(c3)c(/C=C/C(=O)c3cccnc3)cn4S(=O)(=O)c3ccc([N+](=O)[O-])cc3)CC2)N1 | – | – | – | – | – | – | – | Active | Active
